Values quoted from earlier work in US20200323770A1, “WOUND DEBRIDEMENT COMPOSITION AND METHOD FOR TREATING WOUNDS” (Hollister Incorporated, priority 2017, published 2020).

Details: in vitro; increasing papain concentrations 200-1,600 USP units/mg in 10% urea

papain
increased: collagenolysis | elastinolysis | fibrinolysis
